Reference: US6861544B1, “Fluorous tin compounds an methods of using fluorous tin compounds” (University of Pittsburgh, priority 2000, dated 2005)

How the values were obtained:
[1] = Partition coefficient of fluorous tin hydrides, FC-72/CH3CN (GC); type: physicochemical; conditions: FC-72 (1 mL) / acetonitrile (1 mL), stirred 10 min, GC relative peak area, n-octadecane internal standard
Experimental: (§1) Measurement of the Partition Coefficient of Fluorous Tin hyrides 4a-c. Fluorous tin hydrides (2-12 mg) were stirred with FC-72 (1 mL) and benzene (1 mL) or acetonitrile (1 mL) for 10 min. After separation, n-octadecane was added to both phases as an internal standard (for FC-72 phase, the solvent was evaporated and ethyl acetate (1 mL) was added to dissolve both the tin hydride and n-ocadecane). An aliquot (10 uL) of each phase was injected to GC for three times and the relative peak area was used to calculate the following partition coefficients of tin hydrides: FC-72/CH3CN, 4a, 2.4; 4b, 14; 4c, 48; FC-72/benzene, 4a, 0.7; 4b, 2.5; 4c, 4.7.

[2] = Partition coefficient of fluorous tin hydrides, FC-72/benzene (GC); type: physicochemical; conditions: FC-72 (1 mL) / benzene (1 mL), stirred 10 min, GC relative peak area, n-octadecane internal standard
Experimental: as §1

[3] = conditions of the reduction of FIG. 4

[CH3][SnH]([CH3])[CH2]CC(F)(F)C(F)(F)C(F)(F)C(F)(F)C(F)(F)C(F)(F)F [4a, Dimethyl-(3,3,4,4,5,5,6,6,7,7,8,8,8-tridecafluorooctyl)stannane]
partition coefficient FC-72/CH3CN [1]: 2.4
partition coefficient FC-72/benzene [2]: 0.7

[CH3][SnH]([CH3])[CH2]CC(F)(F)C(F)(F)C(F)(F)C(F)(F)C(F)(F)C(F)(F)C(F)(F)C(F)(F)F [4b, Dimethyl-(3,3,4,4,5,5,6,6,7,7,8,8,9,9,10,10,10-heptadecafluorodecyl)stannane]
partition coefficient FC-72/CH3CN [1]: 14
partition coefficient FC-72/benzene [2]: 2.5

[CH3][SnH]([CH3])[CH2]CC(F)(F)C(F)(F)C(F)(F)C(F)(F)C(F)(F)C(F)(F)C(F)(F)C(F)(F)C(F)(F)C(F)(F)F [4c, Dimethyl-(3,3,4,4,5,5,6,6,7,7,8,8,9,9,10,10,11,11,12,12,12-heneicosafluorododecyl)stannane]
partition coefficient FC-72/CH3CN [1]: 48
partition coefficient FC-72/benzene [2]: 4.7

FC(F)(F)C(F)(F)C(F)(F)C(F)(F)C(F)(F)C(F)(F)C[CH2][SnH]([CH2]CC(F)(F)C(F)(F)C(F)(F)C(F)(F)C(F)(F)C(F)(F)F)[CH2]CC(F)(F)C(F)(F)C(F)(F)C(F)(F)C(F)(F)C(F)(F)F [(C6F13CH2CH2)3SnH]
solubility in t-butanol [3]: insoluble or nearly insoluble
